Measured values as given in patent publication US20260262643A1, “HERBICIDAL BENZOXAZINES” (FMC CORPORATION, priority 2022, published 2026).

Legend:
oat, wild [1] = experiment: Test C postemergence; type: in vivo, Avena fatua; settings: 10 days, 0 to 100 scale (0 no effect, 100 complete control)
In short: (§1)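 Seeds sown in loam soil–sand blend received a directed preemergence soil spray of test chemical in non-phytotoxic solvent with surfactant; postemergence plants (2–10 cm, one- to two-leaf stage) were sprayed with the same formulation. Greenhouse-held 10 days, then visually rated for injury versus untreated controls, 0 (no effect) to 100 (complete control).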

wheat [2] = experiment: Test C postemergence; type: in vivo, Triticum aestivum; settings: 10 days, 0 to 100 scale (0 no effect, 100 complete control)
In short: as §1

ragweed [3] = experiment: Test C postemergence; type: in vivo, Ambrosia artemisiifolia; settings: 10 days, 0 to 100 scale (0 no effect, 100 complete control)
In short: as §1

ragweed [4] = experiment: Test C preemergence; type: in vivo, Ambrosia artemisiifolia; settings: preemergence, 0 to 100 scale (0 no effect, 100 complete control)
In short: as §1

green foxtail [5] = experiment: Test C postemergence; type: in vivo, Setaria viridis; settings: 10 days, 0 to 100 scale (0 no effect, 100 complete control)
In short: as §1

ryegrass, Italian [6] = experiment: Test C postemergence; type: in vivo, Lolium multiflorum; settings: 10 days, 0 to 100 scale (0 no effect, 100 complete control)
In short: as §1

ryegrass, Italian [7] = experiment: Test C preemergence; type: in vivo, Lolium multiflorum; settings: preemergence, 0 to 100 scale (0 no effect, 100 complete control)
In short: as §1

kochia [8] = experiment: Test C preemergence; type: in vivo, Bassia scoparia; settings: preemergence, 0 to 100 scale (0 no effect, 100 complete control)
In short: as §1

corn [9] = experiment: Test C preemergence; type: in vivo, Zea mays; settings: preemergence, 0 to 100 scale (0 no effect, 100 complete control)
In short: as §1

kochia [10] = experiment: Test C postemergence; type: in vivo, Bassia scoparia; settings: 10 days, 0 to 100 scale (0 no effect, 100 complete control)
In short: as §1

pigweed, palmer [11] = experiment: Test C preemergence; type: in vivo, Amaranthus palmeri; settings: preemergence, 0 to 100 scale (0 no effect, 100 complete control)
In short: as §1

soybean [12] = experiment: Test C preemergence; type: in vivo, Glycine max; settings: preemergence, 0 to 100 scale (0 no effect, 100 complete control)
In short: as §1

galium = experiment: Test C postemergence; type: in vivo, Galium aparine; settings: 10 days, 0 to 100 scale (0 no effect, 100 complete control)
In short: as §1

blackgrass [13] = experiment: Test C postemergence; type: in vivo, Alopecurus myosuroides; settings: 10 days, 0 to 100 scale (0 no effect, 100 complete control)
In short: as §1

barnyardgrass [14] = experiment: Test C postemergence; type: in vivo, Echinochloa crusgalli; settings: 10 days, 0 to 100 scale (0 no effect, 100 complete control)
In short: as §1

horseweed = experiment: Test C postemergence; type: in vivo, Erigeron canadensis; settings: 10 days, 0 to 100 scale (0 no effect, 100 complete control)
In short: as §1

pigweed, palmer [15] = experiment: Test C postemergence; type: in vivo, Amaranthus palmeri; settings: 10 days, 0 to 100 scale (0 no effect, 100 complete control)
In short: as §1

blackgrass [16] = experiment: Test C preemergence; type: in vivo, Alopecurus myosuroides; settings: preemergence, 0 to 100 scale (0 no effect, 100 complete control)
In short: as §1

ducksalad = experiment: Test D flooded paddy test; type: in vivo, Heteranthera limosa; settings: 250 g ai/ha, applied to paddy water, visual rating after 13 to 14 days, scale 0 to 100 (0 no effect, 100 complete control)
In short: (§2)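 At the 2-leaf stage, floodwater 3 cm deep received the test compound; that depth persisted throughout. Plants scored visually 13 to 14 days on, 0 (no effect) to 100 (complete control), dash indicating no result.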

corn [17] = experiment: Test C postemergence; type: in vivo, Zea mays; settings: 10 days, 0 to 100 scale (0 no effect, 100 complete control)
In short: as §1

sedge, umbrella = experiment: Test D flooded paddy test; type: in vivo, Cyperus difformis; settings: 250 g ai/ha, applied to paddy water, visual rating after 13 to 14 days, scale 0 to 100 (0 no effect, 100 complete control)
In short: as §2

barnyardgrass [18] = experiment: Test D flooded paddy test; type: in vivo, Echinochloa crus-galli; settings: 250 g ai/ha, applied to paddy water, visual rating after 13 to 14 days, scale 0 to 100 (0 no effect, 100 complete control)
In short: as §2

rice = experiment: Test D flooded paddy test; type: in vivo, Oryza sativa; settings: 250 g ai/ha, applied to paddy water, visual rating after 13 to 14 days, scale 0 to 100 (0 no effect, 100 complete control)
In short: as §2

green foxtail [19] = experiment: Test C preemergence; type: in vivo, Setaria viridis; settings: preemergence, 0 to 100 scale (0 no effect, 100 complete control)
In short: as §1

oat, wild [20] = experiment: Test C preemergence; type: in vivo, Avena fatua; settings: preemergence, 0 to 100 scale (0 no effect, 100 complete control)
In short: as §1

barnyardgrass [21] = experiment: Test C preemergence; type: in vivo, Echinochloa crusgalli; settings: preemergence, 0 to 100 scale (0 no effect, 100 complete control)
In short: as §1

soybean [22] = experiment: Test C postemergence; type: in vivo, Glycine max; settings: 10 days, 0 to 100 scale (0 no effect, 100 complete control)
In short: as §1

wheat [23] = experiment: Test C preemergence; type: in vivo, Triticum aestivum; settings: preemergence, 0 to 100 scale (0 no effect, 100 complete control)
In short: as §1

COc1ncn(-c2cccc(C(=O)N3C[C@H](C)Oc4c(C)cccc43)c2)n1 [Compound 307]
40: Kochia plant response rating (kochia [8]; Test C, 125 g ai/ha) | Plant response rating, Kochia (kochia [10]; Postemergence, 125 g ai/ha) | Blackgrass plant response rating (blackgrass [16]; Test C, 125 g ai/ha) | Barnyardgrass plant response rating (barnyardgrass [21]; Test C, 125 g ai/ha)
0: Plant response rating, Ragweed (ragweed [3]; Postemergence, 125 g ai/ha) | Ragweed plant response rating (ragweed [4]; Test C, 125 g ai/ha) | Corn plant response rating (corn [9]; Test C, 125 g ai/ha) | Plant response rating, Ducksalad (Flood) (ducksalad) | Plant response rating, Sedge, Umbrella (Flood) (sedge, umbrella) | Plant response rating, Barnyardgrass (Flood) (barnyardgrass [18]) | Plant response rating, Rice (Flood) (rice)
60: Plant response rating, Foxtail, Green (green foxtail [5]; Postemergence, 125 g ai/ha) | Plant response rating, Ryegrass, Italian (ryegrass, Italian [6]; Postemergence, 125 g ai/ha) | Pigweed, Palmer plant response rating (pigweed, palmer [11]; Test C, 125 g ai/ha)
90: Plant response rating, Foxtail, Green (green foxtail [5]; 500 g ai/ha, postemergence) | Plant response rating, Galium (galium; 500 g ai/ha, postemergence) | Plant response rating, Blackgrass (blackgrass [13]; 500 g ai/ha, postemergence) | Oat, Wild plant response rating (oat, wild [20]; 500 g ai/ha) | Barnyardgrass plant response rating (barnyardgrass [21]; 500 g ai/ha) | Wheat plant response rating (wheat [23]; 500 g ai/ha)
20: Plant response rating, Oat, Wild (oat, wild [1]; Postemergence, 125 g ai/ha) | Soybean plant response rating (soybean [12]; Test C, 125 g ai/ha) | Plant response rating, Horseweed (horseweed; Postemergence, 125 g ai/ha) | Plant response rating, Pigweed, Palmer (pigweed, palmer [15]; Postemergence, 125 g ai/ha)
10: Plant response rating, Wheat (wheat [2]; Postemergence, 125 g ai/ha) | Corn plant response rating (corn [9]; 500 g ai/ha) | Plant response rating, Corn (corn [17]; Postemergence, 125 g ai/ha) | Wheat plant response rating (wheat [23]; Test C, 125 g ai/ha)
100: Pigweed, Palmer plant response rating (pigweed, palmer [11]; 500 g ai/ha) | Soybean plant response rating (soybean [12]; 500 g ai/ha) | Foxtail, Green plant response rating (green foxtail [19]; 500 g ai/ha) | Foxtail, Green plant response rating (green foxtail [19]; Test C, 125 g ai/ha) | Plant response rating, Soybean (soybean [22]; 500 g ai/ha, postemergence) | Plant response rating, Soybean (soybean [22]; Postemergence, 125 g ai/ha)
80: Plant response rating, Oat, Wild (oat, wild [1]; 500 g ai/ha, postemergence) | Plant response rating, Wheat (wheat [2]; 500 g ai/ha, postemergence) | Ryegrass, Italian plant response rating (ryegrass, Italian [7]; 500 g ai/ha) | Ryegrass, Italian plant response rating (ryegrass, Italian [7]; Test C, 125 g ai/ha) | Kochia plant response rating (kochia [8]; 500 g ai/ha) | Plant response rating, Galium (galium; Postemergence, 125 g ai/ha) | Plant response rating, Barnyardgrass (barnyardgrass [14]; 500 g ai/ha, postemergence) | Blackgrass plant response rating (blackgrass [16]; 500 g ai/ha)
30: Plant response rating, Horseweed (horseweed; 500 g ai/ha, postemergence)
70: Plant response rating, Ryegrass, Italian (ryegrass, Italian [6]; 500 g ai/ha, postemergence) | Plant response rating, Kochia (kochia [10]; 500 g ai/ha, postemergence) | Plant response rating, Blackgrass (blackgrass [13]; Postemergence, 125 g ai/ha)
50: Plant response rating, Ragweed (ragweed [3]; 500 g ai/ha, postemergence) | Ragweed plant response rating (ragweed [4]; 500 g ai/ha) | Plant response rating, Barnyardgrass (barnyardgrass [14]; Postemergence, 125 g ai/ha) | Plant response rating, Pigweed, Palmer (pigweed, palmer [15]; 500 g ai/ha, postemergence) | Plant response rating, Corn (corn [17]; 500 g ai/ha, postemergence) | Oat, Wild plant response rating (oat, wild [20]; Test C, 125 g ai/ha)

Cc1cccc2c1O[C@@H](C)CN2C(=O)c1cccc(-n2cnc(N)n2)c1 [Compound 308]
70: Ryegrass, Italian plant response rating (ryegrass, Italian [7]; 500 g ai/ha) | Plant response rating, Galium (galium; Postemergence, 125 g ai/ha) | Oat, Wild plant response rating (oat, wild [20]; 500 g ai/ha)
20: Plant response rating, Wheat (wheat [2]; 500 g ai/ha, postemergence) | Ragweed plant response rating (ragweed [4]; 500 g ai/ha) | Plant response rating, Foxtail, Green (green foxtail [5]; Postemergence, 125 g ai/ha) | Plant response rating, Ryegrass, Italian (ryegrass, Italian [6]; 500 g ai/ha, postemergence) | Kochia plant response rating (kochia [8]; 500 g ai/ha) | Plant response rating, Kochia (kochia [10]; 500 g ai/ha, postemergence) | Plant response rating, Kochia (kochia [10]; Postemergence, 125 g ai/ha) | Pigweed, Palmer plant response rating (pigweed, palmer [11]; Test C, 125 g ai/ha) | Plant response rating, Horseweed (horseweed; Postemergence, 125 g ai/ha)
80: Pigweed, Palmer plant response rating (pigweed, palmer [11]; 500 g ai/ha) | Plant response rating, Galium (galium; 500 g ai/ha, postemergence)
40: Plant response rating, Corn (corn [17]; 500 g ai/ha, postemergence)
90: Foxtail, Green plant response rating (green foxtail [19]; 500 g ai/ha) | Plant response rating, Soybean (soybean [22]; Postemergence, 125 g ai/ha)
30: Plant response rating, Ragweed (ragweed [3]; 500 g ai/ha, postemergence) | Ragweed plant response rating (ragweed [4]; Test C, 125 g ai/ha) | Ryegrass, Italian plant response rating (ryegrass, Italian [7]; Test C, 125 g ai/ha) | Plant response rating, Barnyardgrass (barnyardgrass [14]; 500 g ai/ha, postemergence) | Blackgrass plant response rating (blackgrass [16]; 500 g ai/ha) | Foxtail, Green plant response rating (green foxtail [19]; Test C, 125 g ai/ha) | Wheat plant response rating (wheat [23]; 500 g ai/ha)
10: Plant response rating, Wheat (wheat [2]; Postemergence, 125 g ai/ha) | Plant response rating, Blackgrass (blackgrass [13]; Postemergence, 125 g ai/ha) | Plant response rating, Barnyardgrass (barnyardgrass [14]; Postemergence, 125 g ai/ha) | Plant response rating, Pigweed, Palmer (pigweed, palmer [15]; Postemergence, 125 g ai/ha) | Plant response rating, Corn (corn [17]; Postemergence, 125 g ai/ha)
60: Plant response rating, Blackgrass (blackgrass [13]; 500 g ai/ha, postemergence)
50: Plant response rating, Foxtail, Green (green foxtail [5]; 500 g ai/ha, postemergence) | Plant response rating, Pigweed, Palmer (pigweed, palmer [15]; 500 g ai/ha, postemergence) | Barnyardgrass plant response rating (barnyardgrass [21]; 500 g ai/ha)
100: Plant response rating, Soybean (soybean [22]; 500 g ai/ha, postemergence)
0: Plant response rating, Oat, Wild (oat, wild [1]; 500 g ai/ha, postemergence) | Plant response rating, Oat, Wild (oat, wild [1]; Postemergence, 125 g ai/ha) | Plant response rating, Ragweed (ragweed [3]; Postemergence, 125 g ai/ha) | Plant response rating, Ryegrass, Italian (ryegrass, Italian [6]; Postemergence, 125 g ai/ha) | Kochia plant response rating (kochia [8]; Test C, 125 g ai/ha) | Corn plant response rating (corn [9]; 500 g ai/ha) | Corn plant response rating (corn [9]; Test C, 125 g ai/ha) | Soybean plant response rating (soybean [12]; 500 g ai/ha) | Soybean plant response rating (soybean [12]; Test C, 125 g ai/ha) | Plant response rating, Horseweed (horseweed; 500 g ai/ha, postemergence) | Blackgrass plant response rating (blackgrass [16]; Test C, 125 g ai/ha) | Plant response rating, Ducksalad (Flood) (ducksalad) | Plant response rating, Sedge, Umbrella (Flood) (sedge, umbrella) | Plant response rating, Barnyardgrass (Flood) (barnyardgrass [18]) | Plant response rating, Rice (Flood) (rice) | Oat, Wild plant response rating (oat, wild [20]; Test C, 125 g ai/ha) | Barnyardgrass plant response rating (barnyardgrass [21]; Test C, 125 g ai/ha) | Wheat plant response rating (wheat [23]; Test C, 125 g ai/ha)
